# Patent US20250255298A1, “PENETRATION PROMOTER” (IBIDEN CO., LTD., priority 2023, published 2025)
# Test system: Rice (variety: Nipponbare) leaves
# Assay: Test on penetrability in rice (cut leaves soaked in test penetrant, LC-MS/MS of leaf extract)
# Settings: penetration promoter solutions of Examples 1 and 2
# Method: (§1) A solution obtained by adding 40 μL (20 mg) of pine oil (manufactured by ease Inc.) to 2000 mL of each of the penetration promoter solutions 1 to 8 was used as a terpene test penetrant.
# (§2) A liquid obtained by dissolving 450 mg of ground nucleic acid particles (manufactured by Kenkououendan Inc.) in 2000 mL of each of the penetration promoter solutions 1 to 8 was used as a nucleic acid test penetrant.
# A liquid obtained by dispersing 100 mg of soybean-derived lecithin (manufactured by FUJIFILM Wako Pure Chemical Corporation) in 2000 mL of each of the penetration promoter solutions 1 to 8 was used as a phospholipid test penetrant. • Penetrability test of each organic substance using test penetrant […]
# (§3) The analysis sample was analyzed for the amount of terpene using an LC-MS/MS apparatus (LC part: DIONEX Ultimate3000, MS/MS part: Q Exactive Focus: manufactured by Thermo Fisher Scientific K.K.) under the following conditions. […] Quantification was performed from the MS-peak area value of α-pinene contained in pine oil (manufactured by ease Inc.), and the amounts of terpene penetrated into the intralobar tissue by the penetration promoter solutions 1 to 8 (Examples 1 and 2 and Comparative Examples 1 to 6) were compared. […]
row,Structure (SMILES),penetrability with oleic acid as compared with terpene
1,CCCCCCCC/C=C\CCCCCCCC(=O)O [oleic acid],slightly decreased

# Test system: soybean (variety: Fukuyutaka) leaves
# Assay: Test on penetrability in soybean (absorbent cotton with test penetrant on leaf, LC-MS/MS of leaf extract)
# Settings: penetration promoter solutions of Examples 1 and 2
# Method: as §1, §2
# A liquid obtained by dispersing 100 mg of soybean-derived lecithin (manufactured by FUJIFILM Wako Pure Chemical Corporation) in 2000 mL of each of the penetration promoter solutions 1 to 8 was used as a phospholipid test penetrant. • Penetrability test of each organic substance using test penetrant
# Four soybean (variety: Fukuyutaka) seeds were seeded, per pot, in a No. 3 pot containing Seeding Soil for Vegetables and Flowers (manufactured by Takii Co., Ltd.). […]
# as §3
row,Structure (SMILES),penetrability with oleic acid as compared with terpene
1,CCCCCCCC/C=C\CCCCCCCC(=O)O [oleic acid],slightly decreased

# Test system: not given
# Assay: not given
# Settings: indicated as common logarithmic value Log Kow or Log P; cited from earlier work
row,Structure (SMILES),octanol/water partition coefficient
1,Nc1ncnc2nc[nH]c12 [adenine],−0.1
2,Nc1ncnc2c1ncn2[C@@H]1O[C@H](COP(=O)(O)O)[C@@H](O)[C@H]1O [adenosine monophosphate],−3.1
3,Nc1ncnc2c1ncn2[C@@H]1O[C@H](CO)[C@@H](O)[C@H]1O [adenosine],−1.2
4,C[C@H](N)C(=O)O [alanine],−2.85
5,N[C@@H](CS)C(=O)O [cysteine],−2.49
6,Nc1cc[nH]c(=O)n1 [cytosine],−1.73
7,N[C@@H](CCC(=O)O)C(=O)O [glutamic acid],−3.69
8,NC(=O)CC[C@H](N)C(=O)O [glutamine],−3.64
9,Nc1nc2nc[nH]c2c(=O)[nH]1 [guanine],−0.91
10,Nc1nc2c(ncn2[C@@H]2O[C@H](CO)[C@@H](O)[C@H]2O)c(=O)[nH]1 [guanosine],−1.9
11,N[C@@H](Cc1c[nH]cn1)C(=O)O [histidine],−3.32
12,CC[C@H](C)[C@H](N)C(=O)O [isoleucine],−1.70
13,CC(C)C[C@H](N)C(=O)O [leucine],−1.52
14,NCCCC[C@H](N)C(=O)O [lysine],−3.05
15,CSCC[C@H](N)C(=O)O [methionine],−1.87
16,CCCCCCCC/C=C\CCCCCCCC(=O)O [oleic acid],7.73
17,N[C@@H](Cc1ccccc1)C(=O)O [phenylalanine],−1.38
18,O=C(O)[C@@H]1CCCN1 [proline],−2.54
19,N[C@@H](CO)C(=O)O [serine],−3.07
20,Cc1cn([C@H]2C[C@H](O)[C@@H](COP(=O)(O)O)O2)c(=O)[nH]c1=O [thymidine monophosphate],−2.8
21,Cc1cn([C@H]2C[C@H](O)[C@@H](CO)O2)c(=O)[nH]c1=O [thymidine],−0.93
22,Cc1c[nH]c(=O)[nH]c1=O [thymine],−0.62
23,N[C@@H](Cc1c[nH]c2ccccc12)C(=O)O [tryptophan],−1.05
24,O=c1ccn([C@@H]2O[C@H](CO)[C@@H](O)[C@H]2O)c(=O)[nH]1 [uridine],−1.98
25,CC(C)[C@H](N)C(=O)O [valine],−2.26
